The source of these data is patent US20190106460A1, “BINDING INHIBITORS OF THE BETA. TRANSDUCIN REPEAT-CONTAINING PROTEIN” (priority 2011, published 2019).

The subject of assay [1] is PDCD4 in MCF7 cells. Description: In-cell western assay for PDCD4 accumulation. Type of assay: cell-based. Conditions: general statement, different delivery vehicles. The protocol:
In-Cell Western Assay for PDCD4 Accumulation.
To measure this an in-cell western assay was used and the peptidomimetics were delivered to the cells by nucleofection.
MCF7 cells were grown in 10 cm dishes in 10 ml DMEM+10% FBS and 1% Pen/Strep at 37° C./5% CO2. On the day of nucleofection, the dish was washed with 90% confluent MCF7 cells with 5 ml PBS, then 3 ml of Trypsin/EDTA was added and incubated at 37° C./5% CO2 for approximately 5 mins until the cells detached from the plastic. 7 ml of normal growth media was added and the number of cells present was counted using a haemocytometer.
The cells were centrifuged cells at 90 g for 10 mins at RT and the supernatant was removed. 100 μl of Nucleofection Buffer V+ Supplement was added (Lonza Biologics Cat no VCA-1003) per 8×10^5 cells, and the cells were added to peptidomimetics dissolved in <3% DMSO.
The cell/peptidomimetic mix was added to cuvettes supplied for the nucleofector and the sample was nucleofected using the recommended MCF7 programme for high cell viability (i.e. E-014). 500 μl of TPA (12-O-tetradecanoylphorbol-13-acetate)-supplemented growth media (i.e. DMEM/10% FBS/1% Pen-Strep/10 nM TPA) was added to the cuvette and 100 μl of this solution was transferred to a well of a 96 well plate and incubated at 37° C./5% CO2 for 8 hours.
The celled were fixed by removing the growth media, adding 3.7% Formaldehyde in PBS and incubating at RT for 20 mins. The plate was washed three times in PBS. And the cells were permeabilised by washing 5× for 5 mins each in PBS+0.1% Triton X-100.
The cells were blocked by adding 3% BSA in PBS-Tween to the cells and incubating at RT for 1.5 hours. An anti-PDCD4 antibody (Abcam cat no: ab80590) was added at a concentration of 1:1000 in 3% BSA in PBS-T (50 ul/well) and incubated at RT for 2.5 hours. The cells were washed 5× for 5 mins each with PBS-T before the secondary antibody (LiCor Biosciences Donkey Anti-Rabbit IRDye 800CW cat no 926-32213) was added at a concentration of 1:1000, along with the DNA stain DRAQ5 at a concentration of 1:10000, in 3% BSA in PBS-T (50 ul/well) and incubated at RT for 1 hour, protected from light.
The cells were washed cells 5× for 5 mins each with PBS-T and all the liquid was removed from the wells before the plate was read on the LiCor Biosciences Odyssey at 700 nm and 800 nm. The reading was normalised in the 800 nm channel to that in the 700 nm channel. The data are shown in FIG. 12, where DMSO was used as a negative control and 20 μM MG132 was used as a positive control. The data is presented as percentage activity with DMSO=0% and […]=100% activity. Error bars represent standard deviation from 3 replicates.
The compounds shown in FIGS. 14A-14B were synthesised to improve cell permeability. […] FIG. 16 compares the round II compounds (shown in FIGS. 14A-14B) with UBP036 in this assay. […] Inhibition of βTrCP, which is responsible for the degradation of both PDCD4 and β-catenin, causes a concomitant stabilisation and accumulation of levels of these proteins which can be measured by in cell western assay.

In assay [2] the target is βTrCP (Homo sapiens, UniProt Q9Y297). The experiment in a line: Fluorescence polarisation (FP) binding assay with fluorescein-tagged IκB peptide.
Target sequence in this assay (P63208 whole entry partner, one chain of several): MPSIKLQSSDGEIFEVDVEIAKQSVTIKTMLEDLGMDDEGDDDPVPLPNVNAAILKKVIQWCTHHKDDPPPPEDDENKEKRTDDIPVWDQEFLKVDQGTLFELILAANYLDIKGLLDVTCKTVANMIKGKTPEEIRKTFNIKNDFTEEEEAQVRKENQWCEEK
Assay [3] has as its target β-TrCP1/Skp1 (Homo sapiens, UniProt Q9Y297). Description: βTrCP ubiquitination assay (Ub assay). Type of assay: biochemical. Particulars: for Ub Assay 10 μM: 10 μM compound; for Ub Assay 100 μM: 100 μM compound. Put shortly: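 Compounds tested in duplicate at 10 and 100 μM in βTrCP(IκBα) and βTrCP(β-catenin) cascades with UBE1 E1, UbcH3 E2 and biotinylated ubiquitin; substrate phosphorylation done without compound, ubiquitination steps with compound. Product captured on anti-c-Myc plates and detected with SA-Ru TAG by MSD electrochemiluminescence.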

Assay [4] concerns the target βTrCP/Skp1 (Homo sapiens, UniProt Q9Y297). The experiment in a line: Surface plasmon resonance (SPR), Biacore T200. The format is binding. Conditions: apparent KD averaged over both surfaces. The protocol:
Surface Plasmon Resonance (SPR)
Experiments were carried out using the Biacore T200 SPR detection system. This system exploits the phenomenon of surface plasmon resonance (SPR) to monitor interactions between molecules. The system involves the attachment of one interacting partner to a surface (an appropriate sensor chip) while the other interacting partner is passed over it in solution. The binding of molecules to the surface generates an SPR response (measured in response units (RU)) that is proportional to the mass and amount of the biomolecule (in this case βTrCP/Skp1) bound to the chip. The relative responses obtained are dependent on the concentration of the molecule binding. At RUmaximum, the attached protein's binding sites are saturated. Binding events can be followed in real time and a range of interaction characteristics can be determined including kinetics, specificity of interactions and the concentration of specific molecules in a sample.
As βTrCP was His tagged, an NTA sensor chip was used. This sensor chip has a dextran surface matrix with immobilized nitrilotriacetic acid (NTA) which provides a means of capturing polyHis-tagged proteins through Nickel chelation. It was hoped that addition of Ni^+ would orient the protein in a specific (and hopefully active) manner as it is covalently immobilised via amine coupling. Addition of EDC:NHS (N-ethyl-N′-(3-[…])-carbodiimide:N-hydroxysuccinimide) converts carboxyl groups on the dextran sensor chip surface to succinamide esters which readily form covalent bonds with primary amines. Each chip contains four flow cells (each a separate surface) which means that compounds/peptides can be passed over different forms of βTrCP and a reference surface simultaneously. If binding to βTrCP is occurring, responses should be the same (accounting for differences in density of surface etc) on each surface.
Two different βTrCP protein complexes were immobilised on to an NTA biacore sensor chip. One included the GSTSkp1 fusion (HisβTrCP/GSTSkp1) while the other was immobilised after GST Removal by Thrombin (HisβTrCP/Skp1). To ensure that the GST moiety is completely removed from Skp1, βTrCP/GSTSkp1 was incubated with thrombin ((10units/mg protein) for at least 16 hours at room temperature in 10mMHEPES 150mMNaCl pH7.4+2 mM CaCl2. Thrombin and GST were removed from βTrCP/Skp1 by buffer exchange through a 50 KDa MWCO vivaspin concentrator.
Protein Immobilisation Procedure for NTA Chip
Ni+ (500 μM NiCl) loaded on to surface at a flow rate of 5 μl/min for 60s. EDC/NHS (activates dextran carboxylates) loaded at a flow rate of 5 μl/min for 240s. Protein ([protein]=100 nM to 1 μM) loaded at a flow rate of 10 μl/min for 180s. Strip solution (350 μM EDTA/1M NaCl) added at flow rate of 10 μl/min for 30s (to chelate excess Ni+ and remove non-covalently bound protein e.g. protein oligomers). Quench solution (ethanolamine) at flow rate of 5 μl/min for 240s (to deactivate surface molecules on the chip that have not crosslinked protein). The immobilisation buffer used was 10 mM HEPES pH 7.4, 150 mM NaCl,
GST Capture Procedure (for Immobilisation Via GSTSkp1)
EDC:NHS was injected at 5 μl/min for 4 min to activate surface for amine coupling (this converts carboxyl groups on the surface of the chip to succinamide esters that react with primary amines)
Anti-GST (60 μg/ml). was loaded at 10 μl/min for 4 min resulting in an increase in response units of 6730 (Biacore manual states it should result in ˜7000)
Ethanolamine was injected at 5 μl/min for 5 min to deactivate remaining unreacted esters at surface (quenching).
Injection of a low concentration of purified GST (from kit) was injected for 3 mins at 5 μl/min before running a regeneration cycle with glycine pH2.0 that disrupts the antibody-GST interaction. […]

Assay [5] deals with Skp2 (Homo sapiens, UniProt Q13309). Description: Selectivity assay vs other E3s: Skp2. Type of assay: biochemical. Conditions: for inhibition at 100 µM: value in brackets, read-out: % Inhibition Skp2 @ (100 μM); for inhibition at 10 µM: read-out: % Inhibition Skp2 @ 10 μM. In outline: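 Skp2 ubiquitination was measured in master mixes of 50 mM Herpes buffer, pH 7.5, with 75 mM NaCl and 1 mM DTT, lacking Mg or ATP. Test compounds were preincubated for 30 minutes at room temperature, Mg/ATP was added for a further 60 minutes, and reactions were boiled in SDS loading buffer, resolved on 10% SDS-PAGE, blotted to nitrocellulose and probed with HRP-Streptavidin.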
Chain of Skp2 (Q13309 whole entry, species assumed): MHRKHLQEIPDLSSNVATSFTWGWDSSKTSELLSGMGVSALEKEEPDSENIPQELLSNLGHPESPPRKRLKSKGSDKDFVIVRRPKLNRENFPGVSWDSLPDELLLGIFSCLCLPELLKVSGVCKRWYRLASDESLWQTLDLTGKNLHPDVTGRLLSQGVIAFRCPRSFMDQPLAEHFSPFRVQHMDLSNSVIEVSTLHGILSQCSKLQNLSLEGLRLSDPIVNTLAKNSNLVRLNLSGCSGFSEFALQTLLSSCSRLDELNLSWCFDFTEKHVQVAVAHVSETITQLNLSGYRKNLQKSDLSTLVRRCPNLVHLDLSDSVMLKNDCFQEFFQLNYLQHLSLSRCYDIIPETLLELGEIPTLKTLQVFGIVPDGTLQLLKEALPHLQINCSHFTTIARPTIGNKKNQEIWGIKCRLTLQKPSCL
Chain of Skp2 (P63208 whole entry partner, species assumed): as the sequence (P63208 whole entry partner, one chain of several) above
Chain of Skp2 (Q13616 whole entry partner, species assumed): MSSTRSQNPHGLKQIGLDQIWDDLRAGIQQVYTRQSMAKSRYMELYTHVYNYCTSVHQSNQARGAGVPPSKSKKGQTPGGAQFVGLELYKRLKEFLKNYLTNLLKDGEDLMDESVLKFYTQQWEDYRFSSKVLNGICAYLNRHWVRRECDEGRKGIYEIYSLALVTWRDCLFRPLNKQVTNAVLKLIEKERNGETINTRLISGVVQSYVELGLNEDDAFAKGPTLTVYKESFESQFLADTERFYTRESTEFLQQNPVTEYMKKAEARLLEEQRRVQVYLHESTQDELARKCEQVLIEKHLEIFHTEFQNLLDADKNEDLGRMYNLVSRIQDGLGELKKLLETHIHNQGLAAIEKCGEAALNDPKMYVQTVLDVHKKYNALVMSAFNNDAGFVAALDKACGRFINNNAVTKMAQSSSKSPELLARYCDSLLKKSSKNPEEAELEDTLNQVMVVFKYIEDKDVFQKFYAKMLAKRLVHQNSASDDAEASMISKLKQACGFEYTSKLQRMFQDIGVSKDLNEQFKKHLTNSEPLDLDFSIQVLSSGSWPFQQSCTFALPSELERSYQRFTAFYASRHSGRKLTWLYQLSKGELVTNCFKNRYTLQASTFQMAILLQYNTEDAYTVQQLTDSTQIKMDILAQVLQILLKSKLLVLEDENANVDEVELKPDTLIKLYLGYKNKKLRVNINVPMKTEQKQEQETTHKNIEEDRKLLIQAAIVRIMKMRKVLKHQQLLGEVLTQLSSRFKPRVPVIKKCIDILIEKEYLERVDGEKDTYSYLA
Chain of Skp2 (P62877 whole entry partner, species assumed): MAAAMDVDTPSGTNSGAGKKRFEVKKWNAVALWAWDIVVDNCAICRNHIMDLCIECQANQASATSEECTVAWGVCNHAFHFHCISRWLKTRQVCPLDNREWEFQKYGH

In assay [6] the target is T1, βTrCP (Homo sapiens, UniProt Q9Y297).
T1 sequence (Q9Y297 1-605): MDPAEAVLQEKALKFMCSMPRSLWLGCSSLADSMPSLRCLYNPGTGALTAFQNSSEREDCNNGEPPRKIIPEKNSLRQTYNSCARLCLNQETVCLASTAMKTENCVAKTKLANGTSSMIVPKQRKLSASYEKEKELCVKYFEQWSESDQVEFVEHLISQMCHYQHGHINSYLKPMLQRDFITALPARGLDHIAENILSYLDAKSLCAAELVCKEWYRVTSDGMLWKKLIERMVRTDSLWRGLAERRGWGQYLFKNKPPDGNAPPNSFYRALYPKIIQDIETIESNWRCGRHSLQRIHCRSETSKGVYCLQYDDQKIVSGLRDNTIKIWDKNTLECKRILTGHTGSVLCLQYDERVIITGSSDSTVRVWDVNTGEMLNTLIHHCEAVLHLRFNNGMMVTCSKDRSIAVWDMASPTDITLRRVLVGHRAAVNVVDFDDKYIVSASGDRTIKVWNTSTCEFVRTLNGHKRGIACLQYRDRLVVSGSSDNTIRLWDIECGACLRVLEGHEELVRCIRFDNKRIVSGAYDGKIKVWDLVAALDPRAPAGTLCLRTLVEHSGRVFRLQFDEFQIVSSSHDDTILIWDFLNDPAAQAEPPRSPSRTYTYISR
Description: Biotin pull down assay with biotinylated IκB peptide. Particulars: for Biotin Pulldown Assay 10 μM: 10 μM compound; for Biotin Pulldown Assay 100 μM: 100 μM compound. The format is binding.

For assay [7], the target named is FBW7/Skp1 (Homo sapiens, UniProt Q969H0). The experiment in a line: Selectivity assay vs other E3s: Fbw7. The format is biochemical. Conditions: for inhibition at 100 µM: value in brackets, read-out: % Inhibition Fbw7 @ (100 μM); for inhibition at 10 µM: read-out: % Inhibition Fbw7 @ 10 μM. In outline:
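FBW7/Skp1 E3 ubiquitination of cyclin E substrate in 50 mM HEPES pH 7.5, 75 mM NaCl, 1 mM DTT; preincubated 30 min at room temperature before Mg/ATP, then 60 min more. Products resolved by 10% SDS-PAGE and immunoblotted with anti-cyclin E.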

[8] abbreviates: Table 11, with spread, read-out: FP IC50/μM.

Like-named read-outs stand apart in the source and are kept apart here. Starred links: 1 amine or outer side, 2 acyl side, 3 side chain; linkers in the order of their positions; H or OH if unused. Non-standard residues stand in square brackets, D forms with d. Residues, ends and D or L forms follow the SMILES beside them. *: point of attachment. Benzenesulfonyl(4-OMe) = COc1ccc(S(=O)(=O)*)cc1; Phe(3-F) = N[C@@H](Cc1cccc(F)c1)C(=O)O; 1Nal = N[C@@H](Cc1cccc2ccccc12)C(=O)O; 2Naphthoyl = O=C(c1ccc2ccccc2c1)*; Brosyl = O=S(=O)(c1ccc(Br)cc1)*; Suc = O=C(CCC(=O)[*:2])[*:1]; Ahx = NCCCCCC(=O)O

Chain of FBW7/Skp1 (Q969H0 whole entry, species assumed): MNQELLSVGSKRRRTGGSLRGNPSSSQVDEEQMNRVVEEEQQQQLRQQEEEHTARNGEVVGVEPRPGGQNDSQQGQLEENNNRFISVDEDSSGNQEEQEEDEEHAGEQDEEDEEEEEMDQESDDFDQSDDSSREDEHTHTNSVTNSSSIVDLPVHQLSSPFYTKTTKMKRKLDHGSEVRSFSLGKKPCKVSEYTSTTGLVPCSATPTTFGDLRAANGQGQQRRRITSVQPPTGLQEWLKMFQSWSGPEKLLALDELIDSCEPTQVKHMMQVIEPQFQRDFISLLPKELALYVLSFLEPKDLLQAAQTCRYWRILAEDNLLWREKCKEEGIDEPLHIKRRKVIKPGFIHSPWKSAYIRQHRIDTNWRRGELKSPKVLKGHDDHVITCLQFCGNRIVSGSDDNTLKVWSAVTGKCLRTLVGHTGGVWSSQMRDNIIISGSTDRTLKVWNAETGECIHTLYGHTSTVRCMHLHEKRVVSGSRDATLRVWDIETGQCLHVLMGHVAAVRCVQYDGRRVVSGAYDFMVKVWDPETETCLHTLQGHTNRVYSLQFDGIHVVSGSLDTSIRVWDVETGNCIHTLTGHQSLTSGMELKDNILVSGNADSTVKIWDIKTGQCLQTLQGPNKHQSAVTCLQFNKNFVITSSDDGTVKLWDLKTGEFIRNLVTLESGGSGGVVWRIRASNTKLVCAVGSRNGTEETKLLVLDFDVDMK
Chain of FBW7/Skp1 (P63208 whole entry partner, species assumed): as the sequence (P63208 whole entry partner, one chain of several) above
Chain of FBW7/Skp1 (Q13616 whole entry partner, species assumed): as the sequence (Q13616 whole entry partner, species assumed) above
Chain of FBW7/Skp1 (P62877 whole entry partner, species assumed): as the sequence (P62877 whole entry partner, species assumed) above
Chain of β-TrCP1/Skp1 (P63208 2-163 partner limits assumed, one chain of several): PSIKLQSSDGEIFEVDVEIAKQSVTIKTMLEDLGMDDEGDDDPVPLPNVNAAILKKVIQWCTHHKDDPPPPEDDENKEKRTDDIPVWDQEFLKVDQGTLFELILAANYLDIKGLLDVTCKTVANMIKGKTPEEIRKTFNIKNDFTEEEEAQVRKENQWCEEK
Chain of βTrCP/Skp1 (P63208 whole entry partner, one chain of several): as the sequence (P63208 whole entry partner, one chain of several) above

Regarding `NC(=O)[C@H](CCCCNC(=O)c1ccc2ccccc2c1)NC(=O)CCCCCNC(=O)[C@H](CCC(=O)O)NC(=O)[C@H](Cc1c[nH]c2ccccc12)NC(=O)[C@H](Cc1cccc(F)c1)NC(=O)CNC(=O)[C@H](CCC(=O)O)NC(=O)[C@@H](CC(=O)O)NS(=O)(=O)c1ccc(Br)cc1` [UBP090, 4-(Br)PhSO2-dEGF(3F)WE-Ahx-K(NHCO(2-Naphth))-NH2] (Brosyl-[dD]EG[Phe(3-F)]WE[Ahx]K(2Naphthoyl)-NH2), the cell based activity entry in assay [1] is listed as “display cell based activity”.

For the compound `COc1ccc(S(=O)(=O)N[C@H](CC(=O)O)C(=O)N[C@@H](CCC(=O)O)C(=O)NCC(=O)N[C@@H](Cc2cccc(F)c2)C(=O)N[C@@H](Cc2c[nH]c3ccccc23)C(=O)N[C@@H](CCC(=O)O)C(N)=O)cc1` [UBP022, 4-(MeO)-PhSO2-dEGF(3F)WE-NH2] ({Benzenesulfonyl(4-OMe)}-[dD]EG[Phe(3-F)]WE-NH2), the cell based activity result in assay [1] is listed as “display cell based activity”.

With `NC(=O)CC[C@H](NC(=O)CCC(=O)O)C(=O)NCC(=O)N[C@@H](Cc1cccc(F)c1)C(=O)N[C@@H](Cc1ccc([N+](=O)[O-])cc1)C(=O)N[C@@H](CCC(=O)O)C(N)=O` [UBP012, Suc-QGF(3F)F(4NO2)E-NH2], in assay [2] (setting [8]), the IC50 stood at 2.56 ± 0.374 µM. For the same compound, in assay [3], the “Ub Assay 10 μM” value is “no effect/” and the “Ub Assay 100 μM” value was “inhibits”. For the same compound, the Kd in assay [4] worked out at 5.49 ± 2.27 µM. For the same compound, in assay [5], the inhibition at 100 µM was found to be 0% and the inhibition at 10 µM came out at 0%. For the same compound, in assay [6], the “Biotin Pulldown Assay 10 μM” value is listed as “no effect/” and the “Biotin Pulldown Assay 100 μM” value was “reduces”. For the same compound, in assay [7], the inhibition at 100 µM was 0% and the inhibition at 10 µM turned out to be 0%.

Consider `NC(=O)[C@H](CCC(=O)O)NC(=O)[C@H](Cc1cccc2ccccc12)NC(=O)[C@H](Cc1ccc(O)cc1)NC(=O)CNC(=O)[C@H](CCC(=O)O)NC(=O)CCC(=O)O` [UBP009, Suc-EGY1NalE-NH2] (Suc-EGY[1Nal]E-NH2), for which the IC50 in assay [2] (setting [8]) came out at 1.15 ± 0.222 µM. Further, in assay [2] (Tables 1, 3, 7, 8, 10 nM fluorescein-tagged IκB peptide, read-out: FP Assay IC50/μM), the IC50 was 1.15 µM. Also, in assay [3], the “Ub Assay 10 μM” value is reported as “reduces/” and the “Ub Assay 100 μM” value is “inhibits”. Moreover, in assay [4], the Kd was determined as 1.49 ± 0.625 µM. Moreover, in assay [5], the inhibition at 100 µM is 6% and the inhibition at 10 µM came to 0%. Besides, in assay [6], the “Biotin Pulldown Assay 10 μM” value is “no effect/” and the “Biotin Pulldown Assay 100 μM” value is on record as “inhibits”. Further, in assay [7], the inhibition at 100 µM came to 5% and the inhibition at 10 µM is 1%.
